Measurements from PubChem BioAssay (NCI).
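Protocol summary: plate cells (96-well), add compound at 5 concentrations, incubate 48 h, interpolate endpoints linearly. GI50: concentration for 50% inhibition of growth. The concentration for full growth arrest is given as TGI.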

Columns and labels:
Assay in all cases: DTP human tumour cell line panel, 48 h
M14 melanoma = system: M14 melanoma
A549 NSCLC = system: A549 NSCLC
SF-268 CNS = system: SF-268 CNS
OVCAR-4 ovarian = system: OVCAR-4 ovarian
MDA-MB-435 = system: MDA-MB-435
SF-295 CNS = system: SF-295 CNS
DU-145 prostate = system: DU-145 prostate
UO-31 renal = system: UO-31 renal
UACC-257 melanoma = system: UACC-257 melanoma
MOLT-4 leukemia = system: MOLT-4 leukemia
MDA-N = system: MDA-N
RXF 393 renal = system: RXF 393 renal
PC-3 prostate = system: PC-3 prostate
HOP-62 NSCLC = system: HOP-62 NSCLC
RPMI-8226 leukemia = system: RPMI-8226 leukemia
CCRF-CEM leukemia = system: CCRF-CEM leukemia
NCI/ADR-RES ovarian = system: NCI/ADR-RES ovarian
HS 578T breast = system: HS 578T breast
ACHN renal = system: ACHN renal
HOP-92 NSCLC = system: HOP-92 NSCLC
LOX IMVI melanoma = system: LOX IMVI melanoma
SK-MEL-28 melanoma = system: SK-MEL-28 melanoma
IGROV1 ovarian = system: IGROV1 ovarian
HL-60(TB) leukemia = system: HL-60(TB) leukemia
SNB-19 CNS = system: SNB-19 CNS
HT29 colon = system: HT29 colon
MALME-3M melanoma = system: MALME-3M melanoma
SW-620 colon = system: SW-620 colon
BT-549 breast = system: BT-549 breast
SF-539 CNS = system: SF-539 CNS
A498 renal = system: A498 renal
SR leukemia = system: SR leukemia
OVCAR-3 ovarian = system: OVCAR-3 ovarian
K-562 leukemia = system: K-562 leukemia
OVCAR-8 ovarian = system: OVCAR-8 ovarian
SN12C renal = system: SN12C renal
HCT-116 colon = system: HCT-116 colon
T-47D breast = system: T-47D breast
786-0 renal = system: 786-0 renal
CAKI-1 renal = system: CAKI-1 renal
UACC-62 melanoma = system: UACC-62 melanoma
HCT-15 colon = system: HCT-15 colon
MDA-MB-231 breast = system: MDA-MB-231 breast
U251 CNS = system: U251 CNS
HCC-2998 colon = system: HCC-2998 colon
SK-MEL-5 melanoma = system: SK-MEL-5 melanoma
OVCAR-5 ovarian = system: OVCAR-5 ovarian
NCI-H460 lung = system: NCI-H460 lung
SNB-75 CNS = system: SNB-75 CNS
SK-OV-3 ovarian = system: SK-OV-3 ovarian
NCI-H226 lung = system: NCI-H226 lung
EKVX NSCLC = system: EKVX NSCLC
TK-10 renal = system: TK-10 renal
MCF7 breast = system: MCF7 breast

COC1=C(OC)[C@]2(OC)c3c(O)c(OC)c4c(c3O[C@@]23O[C@@H](c2ccccc2)CC=C3C1=O)[C@@H](O)C[C@H](c1ccccc1)O4
GI50 (M14 melanoma): 358 nM | TGI (M14 melanoma): 1170 nM | GI50 (A549 NSCLC): 2010 nM | TGI (A549 NSCLC): 4390 nM | GI50 (SF-268 CNS): 311 nM | TGI (SF-268 CNS): 1350 nM | GI50 (OVCAR-4 ovarian): 1480 nM | TGI (OVCAR-4 ovarian): 3380 nM | GI50 (MDA-MB-435): 270 nM | TGI (MDA-MB-435): 870 nM | GI50 (SF-295 CNS): 1780 nM | TGI (SF-295 CNS): 3570 nM | GI50 (DU-145 prostate): 2230 nM | TGI (DU-145 prostate): 4560 nM | GI50 (UO-31 renal): 1330 nM | TGI (UO-31 renal): 2600 nM | GI50 (UACC-257 melanoma): 1010 nM | TGI (UACC-257 melanoma): 2360 nM | GI50 (MOLT-4 leukemia): 85.2 nM | TGI (MOLT-4 leukemia): 354 nM | GI50 (MDA-N): 196 nM | TGI (MDA-N): 424 nM | GI50 (RXF 393 renal): 199 nM | TGI (RXF 393 renal): 406 nM | GI50 (PC-3 prostate): 466 nM | TGI (PC-3 prostate): 1030 nM | GI50 (HOP-62 NSCLC): 1540 nM | TGI (HOP-62 NSCLC): 3200 nM | GI50 (RPMI-8226 leukemia): 71.4 nM | TGI (RPMI-8226 leukemia): 597 nM | GI50 (CCRF-CEM leukemia): 54.5 nM | TGI (CCRF-CEM leukemia): 208 nM | GI50 (NCI/ADR-RES ovarian): 688 nM | TGI (NCI/ADR-RES ovarian): 3390 nM | GI50 (HS 578T breast): 1760 nM | TGI (HS 578T breast): 5380 nM | GI50 (ACHN renal): 819 nM | TGI (ACHN renal): 2060 nM | GI50 (HOP-92 NSCLC): 244 nM | TGI (HOP-92 NSCLC): 641 nM | GI50 (LOX IMVI melanoma): 157 nM | TGI (LOX IMVI melanoma): 377 nM | GI50 (SK-MEL-28 melanoma): 318 nM | TGI (SK-MEL-28 melanoma): 1000 nM | GI50 (IGROV1 ovarian): 932 nM | TGI (IGROV1 ovarian): 2440 nM | GI50 (HL-60(TB) leukemia): 177 nM | TGI (HL-60(TB) leukemia): 627 nM | GI50 (SNB-19 CNS): 2110 nM | TGI (SNB-19 CNS): 9690 nM | GI50 (HT29 colon): 224 nM | TGI (HT29 colon): 565 nM | GI50 (MALME-3M melanoma): 377 nM | TGI (MALME-3M melanoma): 1330 nM | GI50 (SW-620 colon): 173 nM | TGI (SW-620 colon): 334 nM | GI50 (BT-549 breast): 394 nM | TGI (BT-549 breast): 1210 nM | GI50 (SF-539 CNS): 934 nM | TGI (SF-539 CNS): 2500 nM | GI50 (A498 renal): 348 nM | TGI (A498 renal): 2350 nM | GI50 (SR leukemia): 229 nM | TGI (SR leukemia): 612 nM | GI50 (OVCAR-3 ovarian): 204 nM | TGI (OVCAR-3 ovarian): 517 nM | GI50 (K-562 leukemia): 97.2 nM | TGI (K-562 leukemia): 742 nM | GI50 (OVCAR-8 ovarian): 181 nM | TGI (OVCAR-8 ovarian): 350 nM | GI50 (SN12C renal): 270 nM | TGI (SN12C renal): 893 nM | GI50 (HCT-116 colon): 183 nM | TGI (HCT-116 colon): 380 nM | GI50 (T-47D breast): 224 nM | TGI (T-47D breast): 621 nM | GI50 (786-0 renal): 171 nM | TGI (786-0 renal): 339 nM | GI50 (CAKI-1 renal): 1340 nM | TGI (CAKI-1 renal): 2930 nM | GI50 (UACC-62 melanoma): 326 nM | TGI (UACC-62 melanoma): 1300 nM | GI50 (HCT-15 colon): 157 nM | TGI (HCT-15 colon): 340 nM | GI50 (MDA-MB-231 breast): 234 nM | TGI (MDA-MB-231 breast): 911 nM | GI50 (U251 CNS): 1800 nM | TGI (U251 CNS): 3550 nM | GI50 (HCC-2998 colon): 564 nM | TGI (HCC-2998 colon): 1960 nM | GI50 (SK-MEL-5 melanoma): 1320 nM | TGI (SK-MEL-5 melanoma): 2600 nM | GI50 (OVCAR-5 ovarian): 1640 nM | TGI (OVCAR-5 ovarian): 3180 nM | GI50 (NCI-H460 lung): 1420 nM | TGI (NCI-H460 lung): 2970 nM | GI50 (SNB-75 CNS): 693 nM | TGI (SNB-75 CNS): 1980 nM | GI50 (SK-OV-3 ovarian): 1760 nM | TGI (SK-OV-3 ovarian): 3450 nM | GI50 (NCI-H226 lung): 286 nM | TGI (NCI-H226 lung): 1460 nM | GI50 (EKVX NSCLC): 1690 nM | TGI (EKVX NSCLC): 3080 nM | GI50 (TK-10 renal): 251 nM | TGI (TK-10 renal): 718 nM | GI50 (MCF7 breast): 321 nM | TGI (MCF7 breast): 1670 nM
